The results in this text go back to article PMC3792216 (Biomolecules & Therapeutics, 2012).

The target in test [1] is estrogen receptor alpha (hERα) (Homo sapiens, UniProt P03372). Put plainly: competitive displacement of [3H]-E2 radioligand, filter binding. A general note: In a radioligand displacement assay an active substance lowers the binding of a labelled ligand.
Test [2] has as its target estrogen receptor beta (hERβ) (Homo sapiens, UniProt Q92731). The test is described as above.

Sequence of estrogen receptor alpha (hERα) (P03372 whole entry): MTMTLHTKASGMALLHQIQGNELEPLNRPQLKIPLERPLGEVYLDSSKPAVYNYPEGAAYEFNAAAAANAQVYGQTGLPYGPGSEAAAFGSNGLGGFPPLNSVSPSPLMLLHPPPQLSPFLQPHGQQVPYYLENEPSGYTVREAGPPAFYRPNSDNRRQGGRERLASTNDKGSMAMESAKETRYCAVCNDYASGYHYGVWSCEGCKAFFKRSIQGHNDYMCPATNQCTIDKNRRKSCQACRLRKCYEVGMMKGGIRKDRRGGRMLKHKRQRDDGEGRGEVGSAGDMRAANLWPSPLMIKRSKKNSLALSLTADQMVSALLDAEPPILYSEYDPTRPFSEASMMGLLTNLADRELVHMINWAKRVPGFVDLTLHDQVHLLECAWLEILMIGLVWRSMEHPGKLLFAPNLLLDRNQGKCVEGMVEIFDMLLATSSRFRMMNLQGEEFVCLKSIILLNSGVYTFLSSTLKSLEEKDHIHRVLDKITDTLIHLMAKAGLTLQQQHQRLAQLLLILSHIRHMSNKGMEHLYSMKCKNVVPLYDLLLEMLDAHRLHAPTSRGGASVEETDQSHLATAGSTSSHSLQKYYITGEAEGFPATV
Sequence of estrogen receptor beta (hERβ) (Q92731 whole entry): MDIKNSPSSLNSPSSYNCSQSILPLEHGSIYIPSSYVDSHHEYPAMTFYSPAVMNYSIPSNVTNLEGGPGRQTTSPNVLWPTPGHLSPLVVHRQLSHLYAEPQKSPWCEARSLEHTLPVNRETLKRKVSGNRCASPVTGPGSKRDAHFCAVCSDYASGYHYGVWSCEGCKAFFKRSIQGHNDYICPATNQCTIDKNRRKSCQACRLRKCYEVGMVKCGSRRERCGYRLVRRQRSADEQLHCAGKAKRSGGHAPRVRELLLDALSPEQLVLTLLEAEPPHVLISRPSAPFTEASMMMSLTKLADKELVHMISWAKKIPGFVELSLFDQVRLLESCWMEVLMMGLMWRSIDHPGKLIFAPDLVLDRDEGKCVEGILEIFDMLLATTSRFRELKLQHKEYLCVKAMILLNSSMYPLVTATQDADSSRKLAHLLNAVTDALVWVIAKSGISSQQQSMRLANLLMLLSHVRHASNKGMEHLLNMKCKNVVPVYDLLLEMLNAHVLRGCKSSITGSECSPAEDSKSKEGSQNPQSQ

With `CC(C)=CCc1cc2c(cc1O)O[C@H](c1ccc(O)cc1)CC2=O` [bavachin], the figures for the IC50 in test [1] and in test [2] were 65.7 µM and 38 µM, respectively.

As usually defined, the IC50 is the concentration at which inhibition is half-maximal. The low end stands for inhibition by little substance, the high end for a need for much substance.
